How the values were obtained:
PTPN2 (i.e., TC-PTP) = molecular target: T1, PTPN2 (i.e., TC-PTP) (Homo sapiens, UniProt P17706); experiment: Phosphatase activity assay (DiFMUP substrate), PTPN2; format: biochemical; details: compounds binned ≤1 uM or >1 uM
T1 sequence (P17706 1-415): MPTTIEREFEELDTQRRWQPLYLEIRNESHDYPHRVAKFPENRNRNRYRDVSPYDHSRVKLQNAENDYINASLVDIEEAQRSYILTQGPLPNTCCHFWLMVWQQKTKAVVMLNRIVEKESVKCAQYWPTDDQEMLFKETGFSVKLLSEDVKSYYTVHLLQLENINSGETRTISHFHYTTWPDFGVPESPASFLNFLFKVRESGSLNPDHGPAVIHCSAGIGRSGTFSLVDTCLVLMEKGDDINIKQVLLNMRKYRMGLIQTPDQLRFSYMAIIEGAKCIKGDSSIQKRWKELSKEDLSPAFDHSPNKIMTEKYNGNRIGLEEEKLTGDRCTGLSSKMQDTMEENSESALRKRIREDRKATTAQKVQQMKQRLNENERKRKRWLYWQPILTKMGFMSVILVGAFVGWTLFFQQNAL
Summary of the method: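 RT, HEPES pH 7.5 buffer with DTT/Tween-20. 10-point inhibitor series premixed ~2 min with enzyme (PTPN2 0.025 ng/ul). Start with DiFMUP at enzyme Km (~45 μM for PTPN2). Read DiFMU ex360/em450 continuously 15–30 min; initial rate vs concentration, 4-parameter fit → IC50.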

PTPN1 (i.e., PTP1B) = molecular target: T2, PTPN1 (i.e., PTP1B) (Homo sapiens, UniProt P18031); experiment: Phosphatase activity assay (DiFMUP substrate), PTP1B; format: biochemical; details: compounds binned ≤1 uM or >1 uM
T2 sequence (P18031 1-435): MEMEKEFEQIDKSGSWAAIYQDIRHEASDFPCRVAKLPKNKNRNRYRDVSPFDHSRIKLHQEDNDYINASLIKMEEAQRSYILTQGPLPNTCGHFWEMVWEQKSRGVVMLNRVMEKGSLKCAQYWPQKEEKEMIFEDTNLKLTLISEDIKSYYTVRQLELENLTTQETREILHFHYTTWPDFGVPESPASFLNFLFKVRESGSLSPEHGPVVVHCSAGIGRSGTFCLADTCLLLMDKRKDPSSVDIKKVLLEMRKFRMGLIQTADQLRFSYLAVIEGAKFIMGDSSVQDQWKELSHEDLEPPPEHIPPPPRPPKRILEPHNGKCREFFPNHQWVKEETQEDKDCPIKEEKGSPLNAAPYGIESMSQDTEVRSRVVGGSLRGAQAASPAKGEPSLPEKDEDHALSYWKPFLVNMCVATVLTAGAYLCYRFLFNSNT
Summary of the method: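 Continuous fluorogenic readout of DiFMUP dephosphorylation at room temperature, substrate set at Km for each phosphatase (about 45 μM in the PTPN2 assay). The buffer contains 1 mM DTT and 0.001% Tween-20, pH 7.5.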

SMILES: O=C1CN(c2c(O)ccc(-c3cc(C4CCCC4)n[nH]3)c2F)S(=O)(=O)N1 [Compound 266, 5-(3-(3-cyclopentyl-1H-pyrazol-5-yl)-2-fluoro-6-hydroxyphenyl)-1,2,5-thiadiazolidin-3-one 1,1-dioxide]
- IC50 (PTPN2 (i.e., TC-PTP)): ≤ 1 µM
- IC50 (PTPN1 (i.e., PTP1B)): ≤ 1 µM

SMILES: O=C1CN(c2c(O)ccc(-c3ccc(NS(=O)(=O)C4CC4)cc3F)c2F)S(=O)(=O)N1 [Compound 438, N-(3′-(1,1-dioxido-4-oxo-1,2,5-thiadiazolidin-2-yl)-2,2′-difluoro-4′-hydroxy-[1,1′-biphenyl]-4-yl)cyclopropanesulfonamide]
- IC50 (PTPN2 (i.e., TC-PTP)): ≤ 1 µM
- IC50 (PTPN1 (i.e., PTP1B)): ≤ 1 µM

SMILES: O=C1CN(c2c(O)ccc(-c3cnn(Cc4cncc(F)c4)c3)c2F)S(=O)(=O)N1 [Compound 111, 5-(2-fluoro-3-(1-((5-fluoropyridin-3-yl)methyl)-1H-pyrazol-4-yl)-6-hydroxyphenyl)-1,2,5-thiadiazolidin-3-one 1,1-dioxide]
- IC50 (PTPN2 (i.e., TC-PTP)): ≤ 1 µM
- IC50 (PTPN1 (i.e., PTP1B)): ≤ 1 µM

SMILES: O=C1CN(c2c(O)ccc(-c3cc4ccccc4[nH]3)c2F)S(=O)(=O)N1 [Compound 258, 5-(2-fluoro-6-hydroxy-3-(1H-indol-2-yl)phenyl)-1,2,5-thiadiazolidin-3-one 1,1-dioxide]
- IC50 (PTPN2 (i.e., TC-PTP)): ≤ 1 µM
- IC50 (PTPN1 (i.e., PTP1B)): ≤ 1 µM

SMILES: CC(C)CCn1cc(-c2ccc(O)c(N3CC(=O)NS3(=O)=O)c2F)nn1 [Compound 219, 5-(2-fluoro-6-hydroxy-3-(1-isopentyl-1H-1,2,3-triazol-4-yl)phenyl)-1,2,5-thiadiazolidin-3-one 1,1-dioxide]
- IC50 (PTPN2 (i.e., TC-PTP)): ≤ 1 µM
- IC50 (PTPN1 (i.e., PTP1B)): ≤ 1 µM

SMILES: O=C1CN(c2c(O)ccc(-c3cc(C4CCOCC4)n[nH]3)c2F)S(=O)(=O)N1 [Compound 420, 5-(2-fluoro-6-hydroxy-3-(3-(tetrahydro-2H-pyran-4-yl)-1H-pyrazol-5-yl)phenyl)-1,2,5-thiadiazolidin-3-one 1,1-dioxide]
- IC50 (PTPN2 (i.e., TC-PTP)): ≤ 1 µM
- IC50 (PTPN1 (i.e., PTP1B)): ≤ 1 µM

SMILES: CC(C)(C#N)c1cc(-c2ccc(O)c(N3CC(=O)NS3(=O)=O)c2F)[nH]n1 [Compound 368, 2-(5-(3-(1,1-dioxido-4-oxo-1,2,5-thiadiazolidin-2-yl)-2-fluoro-4-hydroxyphenyl)-1H-pyrazol-3-yl)-2-methylpropanenitrile]
- IC50 (PTPN2 (i.e., TC-PTP)): ≤ 1 µM
- IC50 (PTPN1 (i.e., PTP1B)): ≤ 1 µM

SMILES: O=C1CN(c2c(O)ccc(-c3cnn(C4CCC(C(F)(F)F)CC4)c3)c2F)S(=O)(=O)N1 (stereo not drawn) [Compound 341, 5-(2-fluoro-6-hydroxy-3-(1-(4-(trifluoromethyl)cyclohexyl)-1H-pyrazol-4-yl)phenyl)-1,2,5-thiadiazolidin-3-one 1,1-dioxide]
- IC50 (PTPN2 (i.e., TC-PTP)): ≤ 1 µM
- IC50 (PTPN1 (i.e., PTP1B)): ≤ 1 µM

SMILES: C=CCCC1C=C(c2ccc(O)c(N3CC(=O)NS3(=O)=O)c2F)CN1 (stereo not drawn) [Compound 471, 5-(3-(5-(but-3-en-1-yl)-2,5-dihydro-1H-pyrrol-3-yl)-2-fluoro-6-hydroxyphenyl)-1,2,5-thiadiazolidin-3-one 1,1-dioxide]
- IC50 (PTPN2 (i.e., TC-PTP)): ≤ 1 µM
- IC50 (PTPN1 (i.e., PTP1B)): ≤ 1 µM

SMILES: Cn1nc(-c2ccc(O)c(N3CC(=O)NS3(=O)=O)c2F)cc1N [Compound 529, 5-(3-(5-amino-1-methyl-1H-pyrazol-3-yl)-2-fluoro-6-hydroxyphenyl)-1,2,5-thiadiazolidin-3-one 1,1-dioxide]
- IC50 (PTPN2 (i.e., TC-PTP)): ≤ 1 µM
- IC50 (PTPN1 (i.e., PTP1B)): ≤ 1 µM

SMILES: CC1CC=C(c2ccc(O)c(N3CC(=O)NS3(=O)=O)c2F)CN1 (stereo not drawn) [Compound 470, 5-(2-fluoro-6-hydroxy-3-(6-methyl-1,2,5,6-tetrahydropyridin-3-yl)phenyl)-1,2,5-thiadiazolidin-3-one 1,1-dioxide]
- IC50 (PTPN2 (i.e., TC-PTP)): ≤ 1 µM
- IC50 (PTPN1 (i.e., PTP1B)): ≤ 1 µM

SMILES: N#Cc1cccc(-n2cnc(-c3ccc(O)c(N4CC(=O)NS4(=O)=O)c3F)c2)c1 [Compound 361, 3-(4-(3-(1,1-dioxido-4-oxo-1,2,5-thiadiazolidin-2-yl)-2-fluoro-4-hydroxyphenyl)-1H-imidazol-1-yl)benzonitrile]
- IC50 (PTPN2 (i.e., TC-PTP)): ≤ 1 µM
- IC50 (PTPN1 (i.e., PTP1B)): ≤ 1 µM

SMILES: O=C1CN(c2c(O)ccc(-c3cnn(Cc4ccc(F)cc4)c3)c2F)S(=O)(=O)N1 [Compound 186, 5-(2-fluoro-3-(1-(4-fluorobenzyl)-1H-pyrazol-4-yl)-6-hydroxyphenyl)-1,2,5-thiadiazolidin-3-one 1,1-dioxide]
- IC50 (PTPN2 (i.e., TC-PTP)): ≤ 1 µM
- IC50 (PTPN1 (i.e., PTP1B)): ≤ 1 µM

SMILES: O=C1CN(c2c(O)ccc(-c3cn(C4CCC(Br)CC4)cn3)c2F)S(=O)(=O)N1 (stereo not drawn) [Compound 423, 5-(3-(1-(4-bromocyclohexyl)-1H-imidazol-4-yl)-2-fluoro-6-hydroxyphenyl)-1,2,5-thiadiazolidin-3-one 1,1-dioxide]
- IC50 (PTPN2 (i.e., TC-PTP)): ≤ 1 µM
- IC50 (PTPN1 (i.e., PTP1B)): ≤ 1 µM

SMILES: O=C1CN(c2c(O)ccc(-c3cnn(Cc4cccc(C(F)(F)F)c4)c3)c2F)S(=O)(=O)N1 [Compound 159, 5-(2-fluoro-6-hydroxy-3-(1-(3-(trifluoromethyl)benzyl)-1H-pyrazol-4-yl)phenyl)-1,2,5-thiadiazolidin-3-one 1,1-dioxide]
- IC50 (PTPN2 (i.e., TC-PTP)): ≤ 1 µM
- IC50 (PTPN1 (i.e., PTP1B)): ≤ 1 µM

SMILES: Cc1cc(-c2ccc(O)c(N3CC(=O)NS3(=O)=O)c2F)on1 [Compound 182, 5-(2-fluoro-6-hydroxy-3-(3-methylisoxazol-5-yl)phenyl)-1,2,5-thiadiazolidin-3-one 1,1-dioxide]
- IC50 (PTPN2 (i.e., TC-PTP)): ≤ 1 µM
- IC50 (PTPN1 (i.e., PTP1B)): ≤ 1 µM

SMILES: Cc1c(-c2cnn(CCC(C)C)c2)ccc(O)c1N1CC(=O)NS1(=O)=O [Compound 119, 5-(6-hydroxy-3-(1-isopentyl-1H-pyrazol-4-yl)-2-methylphenyl)-1,2,5-thiadiazolidin-3-one 1,1-dioxide]
- IC50 (PTPN2 (i.e., TC-PTP)): ≤ 1 µM
- IC50 (PTPN1 (i.e., PTP1B)): ≤ 1 µM

SMILES: O=C1CN(c2c(O)ccc(-c3cn(CC4CCCCC4)cn3)c2F)S(=O)(=O)N1 [Compound 453, 5-(3-(1-(cyclohexylmethyl)-1H-imidazol-4-yl)-2-fluoro-6-hydroxyphenyl)-1,2,5-thiadiazolidin-3-one 1,1-dioxide]
- IC50 (PTPN2 (i.e., TC-PTP)): ≤ 1 µM
- IC50 (PTPN1 (i.e., PTP1B)): ≤ 1 µM

SMILES: O=C1CN(c2c(O)ccc(-c3cc(N4CCC5(CCCN5)C4)n[nH]3)c2F)S(=O)(=O)N1 (stereo not drawn) [Compound 321, 5-(3-(3-(1,7-diazaspiro[4.4]nonan-7-yl)-1H-pyrazol-5-yl)-2-fluoro-6-hydroxyphenyl)-1,2,5-thiadiazolidin-3-one 1,1-dioxide]
- IC50 (PTPN2 (i.e., TC-PTP)): ≤ 1 µM
- IC50 (PTPN1 (i.e., PTP1B)): ≤ 1 µM

SMILES: O=C1CN(c2c(O)ccc(-c3cc(C(=O)NC4CC4)n[nH]3)c2F)S(=O)(=O)N1 [Compound 460, N-cyclopropyl-5-(3-(1,1-dioxido-4-oxo-1,2,5-thiadiazolidin-2-yl)-2-fluoro-4-hydroxyphenyl)-1H-pyrazole-3-carboxamide]
- IC50 (PTPN2 (i.e., TC-PTP)): > 1 µM
- IC50 (PTPN1 (i.e., PTP1B)): ≤ 1 µM

SMILES: Cc1ccc(-c2ccc(O)c(N3CC(=O)NS3(=O)=O)c2F)cn1 [Compound 180, 5-(2-fluoro-6-hydroxy-3-(6-methylpyridin-3-yl)phenyl)-1,2,5-thiadiazolidin-3-one 1,1-dioxide]
- IC50 (PTPN2 (i.e., TC-PTP)): ≤ 1 µM
- IC50 (PTPN1 (i.e., PTP1B)): ≤ 1 µM

SMILES: Cc1n[nH]c(C)c1-c1ccc(O)c(N2CC(=O)NS2(=O)=O)c1F [Compound 164, 5-(3-(3,5-dimethyl-1H-pyrazol-4-yl)-2-fluoro-6-hydroxyphenyl)-1,2,5-thiadiazolidin-3-one 1,1-dioxide]
- IC50 (PTPN2 (i.e., TC-PTP)): > 1 µM
- IC50 (PTPN1 (i.e., PTP1B)): > 1 µM

SMILES: O=C1CN(c2c(O)ccc(-c3ncc(C4CC4)[nH]3)c2F)S(=O)(=O)N1 [Compound 347, 5-(3-(5-cyclopropyl-1H-imidazol-2-yl)-2-fluoro-6-hydroxyphenyl)-1,2,5-thiadiazolidin-3-one 1,1-dioxide]
- IC50 (PTPN2 (i.e., TC-PTP)): ≤ 1 µM
- IC50 (PTPN1 (i.e., PTP1B)): ≤ 1 µM

SMILES: O=C1CN(c2c(O)ccc(-c3ccc(N4CCCC4)cc3)c2F)S(=O)(=O)N1 [Compound 117, 5-(2-fluoro-4-hydroxy-4′-(pyrrolidin-1-yl)-[1,1′-biphenyl]-3-yl)-1,2,5-thiadiazolidin-3-one 1,1-dioxide]
- IC50 (PTPN2 (i.e., TC-PTP)): ≤ 1 µM
- IC50 (PTPN1 (i.e., PTP1B)): ≤ 1 µM

SMILES: CC(C)CC1C=C(c2ccc(O)c(N3CC(=O)NS3(=O)=O)c2F)CN1 (stereo not drawn) [Compound 531, 5-(2-fluoro-6-hydroxy-3-(5-isobutyl-2,5-dihydro-1H-pyrrol-3-yl)phenyl)-1,2,5-thiadiazolidin-3-one 1,1-dioxide]
- IC50 (PTPN2 (i.e., TC-PTP)): ≤ 1 µM
- IC50 (PTPN1 (i.e., PTP1B)): ≤ 1 µM

SMILES: Cc1cc(-c2ccc(O)c(N3CC(=O)NS3(=O)=O)c2F)[nH]n1 [Compound 183, 5-(2-fluoro-6-hydroxy-3-(3-methyl-1H-pyrazol-5-yl)phenyl)-1,2,5-thiadiazolidin-3-one 1,1-dioxide]
- IC50 (PTPN2 (i.e., TC-PTP)): ≤ 1 µM
- IC50 (PTPN1 (i.e., PTP1B)): ≤ 1 µM

SMILES: O=C1CN(c2c(O)ccc(-c3cnn(C4CCCOCC4)c3)c2F)S(=O)(=O)N1 (stereo not drawn) [Compound 456, 5-(2-fluoro-6-hydroxy-3-(1-(oxepan-4-yl)-1H-pyrazol-4-yl)phenyl)-1,2,5-thiadiazolidin-3-one 1,1-dioxide]
- IC50 (PTPN2 (i.e., TC-PTP)): ≤ 1 µM
- IC50 (PTPN1 (i.e., PTP1B)): ≤ 1 µM
